How the values were obtained:
C3 [1] = assay: C3 expression in IL-4/TNF-α treated HMC-1 cells, RT-PCR; format: cell-based, human; conditions: HMC-1 cells treated with IL-4 and TNF-α; PLAG 0.1 and 1 μg/mL pre-treatment, or S6I
Description: A blood cell line, HMC-1 (human mast cell, American Type Culture Collection, ATCC, Rockville, Md.) is incubated and maintained at 37° C. under 5% CO2 humid conditions. The medium is IMDM (Life Technologies, Karlsruhe, Germany) containing 10% Fetal Calf Serum (FCS, HyClone, Logan, Utah), 2 mM […], 100 μg/ml penicillin, 100 μg/ml streptomycin (Life Technologies). The cultured HMC-1 cells (1×10^6 cell/ml) are pre-treated with 0.1 and 1 μg/mL concentration of PLAG, followed by treating with IL-4 (5 ng) and/or TNF-α (10 ng) to induce cellular activities.
The expressed C3 and its mRNA level change are observed by using RT-PCR (Reverse Transcriptase Polymerase Chain Reaction). The RT-PCR is carried out as follows: the total RNA is separated by the standard protocol and cDNA is synthesized using AccuScript High Fidelity 1st Strand cDNA Synthesis Kit (Stratagene) by the manufacturer's instructions. Two-step RT-PCR reaction is conducted using Oligo-dT primer and reverse transcriptase, pair of primer and Taq polymerase (Takara, Shiga, Japan). […] The product of PCR is separated using 1.5% agarose gel, dyed with ethidium bromide (EtBr), and visualized with Gel Doc 2000 UV trans-illuminator (Bio-Rad Laboratories, Hercules, Calif., USA), and the experimental data is analyzed using Quantity One software (Bio-Rad Laboratories).

C3 [2] = assay: C3 expression in HepG2 cell line, RT-PCR of mRNA; format: cell-based, human; conditions: HepG2 cells, S6I 10 and 100 microgram/ml, relative to PLAG 1 and 10 microgram/ml
Description: A liver cell line, HepG2 (American Type Culture Collection, ATCC, Rockville, Md.), is incubated and maintained at 37° C., 5% CO2 humid atmosphere in DMEM medium. When HepG2 cells, which are known to produce complement in culture, are treated with PLAG, the activity of complement is reduced effectively, as confirmed by RT-PCR of mRNA. In the RT-PCR, 5×10^5 number of HepG2 cells/ml are distributed into 12 well plates and induced C3 for 12 hours with 10% FCS. Then PLAG is added and further cultured for 2 hours. Cells are harvested and mRNA is isolated and RT-PCR is carried out with specific primer of C3; GAPDH is used as an internal control.

[3] = system: white blood cells and neutrophils; assay: PLAG in combination with G-CSF in cyclophosphamide-treated mouse model; format: in vivo, mice; conditions: cyclophosphamide 100 mpk i.p. ten days; G-CSF 0.25 mpk i.p.; PLAG 25 mpk p.o.
Description: Mice receive cyclophosphamide (100 mpk, i.p.) for a period of ten days, with or without G-CSF (0.25 mpk, i.p.) or G-CSF (0.25 mpk, i.p.) plus PLAG (25 mpk, p.o.): […]

Compound	expression of C3 (C3 [1])	inhibition of C3 expression (RT-PCR) (C3 [2])	Neutrophils [3]	White blood cells (WBCs) [3]
NC(=O)c1cnc(NCCc2ccc(O)c(Cl)c2)nc1NCc1ccccc1 [S6I, reference compound]	suppresses expression of C3	comparable		
G-CSF: Granulocyte-colony stimulating factor, a glycoprotein that stimulates hematopoietic precursor cells in the bone marrow			4.36 k/μl	5.37 k/μl

From patent US11491132B2, “Methods for treating thrombocytopenia” (Enzychem Lifesciences Corporation, priority 2014, dated 2022)
